Experimental data as given in patent US12139520B2 (priority 2020, dated 2024).
Bridge positions count the residues as written; N and C are the ends. Square brackets hold non-standard residues; d marks the D form. Peptide text beside a SMILES is read from it. Hyp = O=C(O)[C@@H]1C[C@@H](O)CN1

Assays:
hAMY3 receptor = biological target: T1, hAMY3 receptor (Homo sapiens, UniProt O60896+P30988); assay: cAMP assay for in vitro receptor activation, hAMY3-R; type: cell-based; settings: cAMP assay, hAMY3 receptor; read-out: hAMY3R EC50
T1 sequence (P30988 25-474): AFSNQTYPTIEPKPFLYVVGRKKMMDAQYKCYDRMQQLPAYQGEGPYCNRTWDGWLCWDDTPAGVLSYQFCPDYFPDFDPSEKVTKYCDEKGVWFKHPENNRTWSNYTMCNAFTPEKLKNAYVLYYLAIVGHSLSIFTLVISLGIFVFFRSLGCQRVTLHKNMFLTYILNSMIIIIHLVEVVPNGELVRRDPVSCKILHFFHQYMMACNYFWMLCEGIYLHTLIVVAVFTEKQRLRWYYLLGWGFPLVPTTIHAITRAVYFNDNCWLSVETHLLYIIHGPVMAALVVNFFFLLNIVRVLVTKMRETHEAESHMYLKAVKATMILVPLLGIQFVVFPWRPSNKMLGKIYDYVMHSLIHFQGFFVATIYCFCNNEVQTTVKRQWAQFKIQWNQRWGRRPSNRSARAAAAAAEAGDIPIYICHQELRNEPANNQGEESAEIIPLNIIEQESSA
T1 sequence (O60896 24-148 partner): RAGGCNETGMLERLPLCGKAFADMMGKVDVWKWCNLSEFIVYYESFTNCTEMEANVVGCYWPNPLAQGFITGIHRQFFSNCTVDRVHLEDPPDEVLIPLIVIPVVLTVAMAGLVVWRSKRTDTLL
Summary of the method: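 Accumulated cAMP was detected by time-resolved FRET one hour after reagent addition. Beforehand, hAMY3-R-overexpressing monoclonal cells (2000/well, DPBS, 0.05% casein, 0.5 mM IBMX) received graded doses of compound for 30 min at room temperature; human amylin served as positive control.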

hAM1 receptor = hAM1 receptor (Homo sapiens, UniProt O60895+Q16602); assay: cAMP assay for in vitro receptor activation, hAM1-R; type: cell-based; settings: cAMP assay, hAM1 receptor; read-out: hAM1R EC50
Chain of hAM1 receptor (Q16602 23-461): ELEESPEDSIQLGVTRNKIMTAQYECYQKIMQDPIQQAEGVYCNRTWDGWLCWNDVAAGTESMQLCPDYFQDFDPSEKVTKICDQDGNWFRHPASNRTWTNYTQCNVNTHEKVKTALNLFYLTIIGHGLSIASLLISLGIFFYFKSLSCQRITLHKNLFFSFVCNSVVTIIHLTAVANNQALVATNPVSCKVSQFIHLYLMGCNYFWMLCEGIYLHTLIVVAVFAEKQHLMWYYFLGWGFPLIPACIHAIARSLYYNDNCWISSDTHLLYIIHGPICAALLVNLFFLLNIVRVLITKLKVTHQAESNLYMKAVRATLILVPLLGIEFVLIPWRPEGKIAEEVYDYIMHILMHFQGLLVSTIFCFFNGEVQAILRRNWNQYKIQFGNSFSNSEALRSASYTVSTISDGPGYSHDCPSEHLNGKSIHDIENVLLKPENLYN
Chain of hAM1 receptor (O60895 43-175 partner): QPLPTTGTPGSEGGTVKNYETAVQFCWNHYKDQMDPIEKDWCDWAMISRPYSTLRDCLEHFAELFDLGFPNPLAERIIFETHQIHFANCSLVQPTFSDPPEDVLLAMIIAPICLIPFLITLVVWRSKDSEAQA
Summary of the method: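 Monoclonal stable hAM1-overexpressing cells, thawed from frozen stock; 8000 cells/well in DPBS + 0.05% casein + 0.5 mM IBMX; read-out cAMP.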

[1] = Physical stability of peptide analogues (Thioflavin T fibrillation); type: physicochemical; settings: maximum ThT signal normalized between hAMY maximum and buffer background; 40° C., shaking, four days; pH 7 per table title
Summary of the method: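 1 h in 50 mM NaOAc pH 4 / 50 mM NaPi pH 7; + ThT 4 μM final; 40 °C, 700 rpm linear shake 5 min pre-read; ex 450, em 480 nm q10 min × 4 d; LOESS smoothing; max signal normalised to hAMY max vs buffer blank.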

Row | Structure (SMILES) | EC50 (hAMY3 receptor) [nM] | EC50 (hAM1 receptor) [nM] | Max ThT signal (%) [1] [%]
1 | CC[C@H](C)[C@H](NC(=O)[C@H](CCC(N)=O)NC(=O)[C@H](Cc1c[nH]cn1)NC(=O)[C@H](C)NC(=O)[C@H](CC(C)C)NC(=O)[C@H](CCCNC(=N)N)NC(=O)[C@H](CCC(N)=O)NC(=O)[C@@H](NC(=O)[C@@H](NC(=O)[C@@H]1CSSC[C@H](NC(=O)CN)C(=O)N[C@@H](CCCNC(=N)N)C(=O)N[C@@H]([C@@H](C)O)C(=O)NCC(=O)N[C@@H]([C@@H](C)O)C(=O)N1)[C@@H](C)O)C(C)C)C(=O)N[C@@H](Cc1ccc(O)cc1)C(=O)N[C@@H](CCC(N)=O)C(=O)N[C@@H](Cc1ccccc1)C(=O)N[C@H](C(=O)N[C@@H](CC(=O)O)C(=O)N[C@@H](CCCCN)C(=O)N[C@@H](Cc1ccccc1)C(=O)N[C@@H](CCCCN)C(=O)N[C@@H](CC(=O)O)C(=O)N[C@@H](CC(N)=O)C(=O)N[C@H](C(=O)N[C@@H](C)C(=O)N1CCC[C@H]1C(=O)N[C@@H](CCCNC(=N)N)C(=O)N[C@@H](CO)C(=O)N[C@@H](CCCCN)C(=O)N[C@H](C(=O)N[C@@H](CO)C(=O)N1CCC[C@H]1C(=O)N[C@@H](CCC(N)=O)C(=O)N[C@@H](CCCCN)C(=O)N1C[C@H](O)C[C@H]1C(N)=O)[C@@H](C)CC)C(C)C)[C@@H](C)O [compound 206] (H-GCRTGTCTVQRLAHQIYQFTDKFKDNVAPRSKISPQK[Hyp]-NH2; disulfide 2-7; N-terminus assumed) | 0.13 | > 5000 | 1.500
2 | CC[C@H](C)[C@H](NC(=O)[C@H](CCC(N)=O)NC(=O)[C@H](Cc1c[nH]cn1)NC(=O)[C@H](C)NC(=O)[C@H](CC(C)C)NC(=O)[C@H](CCCNC(=N)N)NC(=O)[C@H](CCC(N)=O)NC(=O)[C@@H](NC(=O)[C@@H](NC(=O)[C@@H]1CSSC[C@H](NC(=O)CN)C(=O)N[C@@H](CCCNC(=N)N)C(=O)N[C@@H]([C@@H](C)O)C(=O)NCC(=O)N[C@@H]([C@@H](C)O)C(=O)N1)[C@@H](C)O)C(C)C)C(=O)N[C@@H](Cc1ccc(O)cc1)C(=O)N[C@@H](CCC(N)=O)C(=O)N[C@@H](Cc1ccccc1)C(=O)N[C@H](C(=O)N[C@@H](CC(=O)O)C(=O)N[C@@H](CCCCN)C(=O)N[C@@H](Cc1ccccc1)C(=O)N[C@@H](CCCCN)C(=O)N[C@@H](CC(=O)O)C(=O)N[C@@H](CC(N)=O)C(=O)N[C@H](C(=O)N[C@@H](C)C(=O)N1CCC[C@H]1C(=O)N[C@@H](CCCNC(=N)N)C(=O)N[C@@H](CO)C(=O)N[C@@H](CCCCN)C(=O)N[C@H](C(=O)N[C@@H](CO)C(=O)N1CCC[C@H]1C(=O)N[C@@H](CCC(N)=O)C(=O)N[C@@H](Cc1c[nH]c2ccccc12)C(=O)N1C[C@H](O)C[C@H]1C(N)=O)[C@@H](C)CC)C(C)C)[C@@H](C)O [compound 185] (H-GCRTGTCTVQRLAHQIYQFTDKFKDNVAPRSKISPQW[Hyp]-NH2; disulfide 2-7; N-terminus assumed) | 0.09 | > 5000 | 2.800
3 | CC[C@H](C)[C@H](NC(=O)[C@H](CCC(N)=O)NC(=O)[C@H](Cc1c[nH]cn1)NC(=O)[C@H](C)NC(=O)[C@H](CC(C)C)NC(=O)[C@H](Cc1c[nH]c2ccccc12)NC(=O)[C@H](CCC(N)=O)NC(=O)[C@@H](NC(=O)[C@@H](NC(=O)[C@@H]1CSSC[C@H](NC(=O)[C@@H](N)CCCCN)C(=O)N[C@@H](CC(N)=O)C(=O)N[C@@H]([C@@H](C)O)C(=O)N[C@@H](C)C(=O)N[C@@H]([C@@H](C)O)C(=O)N1)[C@@H](C)O)C(C)C)C(=O)N[C@@H](Cc1ccc(O)cc1)C(=O)N[C@@H](CCC(N)=O)C(=O)N[C@@H](Cc1ccccc1)C(=O)N[C@@H](C)C(=O)N[C@@H](CC(=O)O)C(=O)N[C@@H](CCCCN)C(=O)N[C@@H](CC(=O)O)C(=O)N[C@@H](CCCCN)C(=O)N[C@@H](CC(=O)O)C(=O)N[C@@H](CC(N)=O)C(=O)N[C@H](C(=O)N[C@@H](C)C(=O)N1CCC[C@H]1C(=O)N1CCC[C@H]1C(=O)N[C@H](C(=O)N[C@@H](CC(N)=O)C(=O)N[C@H](C(=O)NCC(=O)N[C@@H](CO)C(=O)N[C@@H](CC(N)=O)C(=O)NCC(=O)N1C[C@H](O)C[C@H]1C(N)=O)C(C)C)[C@@H](C)O)C(C)C [compound 313] (H-KCNTATCTVQWLAHQIYQFADKDKDNVAPPTNVGSNG[Hyp]-NH2; disulfide 2-7; N-terminus assumed) | 0.004 | > 5000 | 15.050
4 | CC[C@H](C)[C@H](NC(=O)[C@H](CCC(N)=O)NC(=O)[C@H](Cc1c[nH]cn1)NC(=O)[C@H](C)NC(=O)[C@H](CC(C)C)NC(=O)[C@H](Cc1c[nH]c2ccccc12)NC(=O)[C@H](CCC(N)=O)NC(=O)[C@@H](NC(=O)[C@@H](NC(=O)[C@@H]1CSSC[C@H](NC(=O)[C@@H](N)CCCCN)C(=O)N[C@@H](CC(N)=O)C(=O)N[C@@H]([C@@H](C)O)C(=O)N[C@@H](C)C(=O)N[C@@H]([C@@H](C)O)C(=O)N1)[C@@H](C)O)C(C)C)C(=O)N[C@@H](Cc1ccc(O)cc1)C(=O)N[C@@H](CCC(N)=O)C(=O)N[C@@H](Cc1ccccc1)C(=O)N[C@H](C(=O)N[C@@H](CC(=O)O)C(=O)N[C@@H](CCCCN)C(=O)N[C@@H](CC(=O)O)C(=O)N[C@@H](CCCCN)C(=O)N[C@@H](CC(=O)O)C(=O)N[C@@H](C)C(=O)N[C@H](C(=O)N[C@@H](C)C(=O)N1CCC[C@H]1C(=O)N1CCC[C@H]1C(=O)N[C@H](C(=O)N[C@@H](CC(N)=O)C(=O)N[C@H](C(=O)NCC(=O)N[C@@H](CO)C(=O)N[C@@H](CC(N)=O)C(=O)NCC(=O)N1C[C@H](O)C[C@H]1C(N)=O)C(C)C)[C@@H](C)O)C(C)C)[C@@H](C)O [compound 324] (H-KCNTATCTVQWLAHQIYQFTDKDKDAVAPPTNVGSNG[Hyp]-NH2; disulfide 2-7; N-terminus assumed) | 0.028 | > 5000 | 11.850

Now from value to molecule:

Row | EC50 (hAMY3 receptor) [nM] | EC50 (hAM1 receptor) [nM] | Max ThT signal (%) [1] [%] | Structure (SMILES)
5 | 0.015 | > 5000 | 1.600 | CC[C@H](C)[C@H](NC(=O)[C@H](CCC(N)=O)NC(=O)[C@H](Cc1c[nH]cn1)NC(=O)[C@H](C)NC(=O)[C@H](CC(C)C)NC(=O)[C@H](Cc1c[nH]c2ccccc12)NC(=O)[C@H](CCC(N)=O)NC(=O)[C@@H](NC(=O)[C@@H](NC(=O)[C@@H]1CSSC[C@H](NC(=O)CN)C(=O)N[C@@H](CCCNC(=N)N)C(=O)N[C@@H]([C@@H](C)O)C(=O)NCC(=O)N[C@@H]([C@@H](C)O)C(=O)N1)[C@@H](C)O)C(C)C)C(=O)N[C@@H](Cc1ccc(O)cc1)C(=O)N[C@@H](CCC(N)=O)C(=O)N[C@@H](Cc1ccccc1)C(=O)N[C@H](C(=O)N[C@@H](CC(=O)O)C(=O)N[C@@H](CCCCN)C(=O)N[C@@H](CC(=O)O)C(=O)N[C@@H](CCCCN)C(=O)N[C@@H](CC(=O)O)C(=O)N[C@@H](CC(N)=O)C(=O)N[C@H](C(=O)N[C@@H](C)C(=O)N1CCC[C@H]1C(=O)N[C@@H](CCCNC(=N)N)C(=O)N[C@H](C(=O)N[C@@H](CC(N)=O)C(=O)N[C@H](C(=O)NCC(=O)N1CCC[C@H]1C(=O)N[C@@H](CCC(N)=O)C(=O)NCC(=O)N[C@@H](Cc1ccc(O)cc1)C(N)=O)C(C)C)[C@@H](C)O)C(C)C)[C@@H](C)O [compound 335] (H-GCRTGTCTVQWLAHQIYQFTDKDKDNVAPRTNVGPQGY-NH2; disulfide 2-7; N-terminus assumed)
6 | 0.068 | > 5000 | 15.500 | CC[C@H](C)[C@H](NC(=O)[C@H](CCC(N)=O)NC(=O)[C@H](Cc1c[nH]cn1)NC(=O)[C@H](C)NC(=O)[C@H](CC(C)C)NC(=O)[C@H](Cc1c[nH]c2ccccc12)NC(=O)[C@H](CCC(N)=O)NC(=O)[C@@H](NC(=O)[C@@H](NC(=O)[C@@H]1CSSC[C@H](NC(=O)CN)C(=O)N[C@@H](CCCNC(=N)N)C(=O)N[C@@H]([C@@H](C)O)C(=O)NCC(=O)N[C@@H]([C@@H](C)O)C(=O)N1)[C@@H](C)O)C(C)C)C(=O)N[C@@H](Cc1ccc(O)cc1)C(=O)N[C@@H](CCC(N)=O)C(=O)N[C@@H](Cc1ccccc1)C(=O)N[C@H](C(=O)N[C@@H](CC(=O)O)C(=O)N[C@@H](CCCCN)C(=O)N[C@@H](CC(=O)O)C(=O)N[C@@H](CCCCN)C(=O)N[C@@H](CC(=O)O)C(=O)N[C@@H](CC(N)=O)C(=O)N[C@H](C(=O)N[C@@H](C)C(=O)N1CCC[C@H]1C(=O)N[C@@H](CCCNC(=N)N)C(=O)N[C@@H](CO)C(=O)N[C@@H](CCCCN)C(=O)N[C@H](C(=O)NCC(=O)N1CCC[C@H]1C(=O)N[C@@H](CC(N)=O)C(=O)NCC(=O)N1C[C@H](O)C[C@H]1C(N)=O)C(C)C)C(C)C)[C@@H](C)O [compound 347] (H-GCRTGTCTVQWLAHQIYQFTDKDKDNVAPRSKVGPNG[Hyp]-NH2; disulfide 2-7; N-terminus assumed)
